Holding throughout (assay type): binding
Assay [1] addresses T1, panel of 442 kinases (Homo sapiens, UniProt P15056).
T1 construct: purchased KINOMEscan
The settings on record: Compound Concentration 10 µM. An excerpt:
(§1) We assessed the selectivity of members of this scaffold using the KINOMEscan methodology across a near comprehensive panel of 442 kinases [[18,27]].

Assay [2] has as its target T2, panel of 442 kinases (Homo sapiens, UniProt Q15569).
T2 construct: purchased KINOMEscan
The settings on record: kinase TESK1; compound concentration 10 µM.
From the text: as §1

The target in assay [3] is T3, panel of 442 kinases (Homo sapiens, UniProt P42680).
T3 construct: purchased KINOMEscan
T3 sequence (P42680 1-631): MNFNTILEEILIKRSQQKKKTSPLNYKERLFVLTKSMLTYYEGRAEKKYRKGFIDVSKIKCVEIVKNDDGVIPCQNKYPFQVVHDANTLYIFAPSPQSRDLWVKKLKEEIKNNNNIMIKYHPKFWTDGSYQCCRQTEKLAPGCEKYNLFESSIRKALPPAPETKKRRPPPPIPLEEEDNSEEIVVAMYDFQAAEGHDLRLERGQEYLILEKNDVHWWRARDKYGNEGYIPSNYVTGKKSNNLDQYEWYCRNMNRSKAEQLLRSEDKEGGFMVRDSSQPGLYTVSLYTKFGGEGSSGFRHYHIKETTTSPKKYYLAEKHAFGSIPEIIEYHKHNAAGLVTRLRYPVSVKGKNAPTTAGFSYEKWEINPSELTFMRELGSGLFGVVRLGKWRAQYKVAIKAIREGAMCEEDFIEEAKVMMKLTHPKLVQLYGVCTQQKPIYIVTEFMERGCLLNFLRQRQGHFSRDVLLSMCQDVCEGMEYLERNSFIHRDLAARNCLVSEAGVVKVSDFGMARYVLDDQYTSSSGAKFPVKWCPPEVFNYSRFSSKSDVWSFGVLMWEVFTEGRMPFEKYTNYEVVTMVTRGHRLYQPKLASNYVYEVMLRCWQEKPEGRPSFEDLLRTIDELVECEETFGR
The settings on record: kinase TEC; compound concentration 10 µM.
From the text: as §1

Each structure is given as a SMILES string.

T2 sequence (Q15569 whole entry): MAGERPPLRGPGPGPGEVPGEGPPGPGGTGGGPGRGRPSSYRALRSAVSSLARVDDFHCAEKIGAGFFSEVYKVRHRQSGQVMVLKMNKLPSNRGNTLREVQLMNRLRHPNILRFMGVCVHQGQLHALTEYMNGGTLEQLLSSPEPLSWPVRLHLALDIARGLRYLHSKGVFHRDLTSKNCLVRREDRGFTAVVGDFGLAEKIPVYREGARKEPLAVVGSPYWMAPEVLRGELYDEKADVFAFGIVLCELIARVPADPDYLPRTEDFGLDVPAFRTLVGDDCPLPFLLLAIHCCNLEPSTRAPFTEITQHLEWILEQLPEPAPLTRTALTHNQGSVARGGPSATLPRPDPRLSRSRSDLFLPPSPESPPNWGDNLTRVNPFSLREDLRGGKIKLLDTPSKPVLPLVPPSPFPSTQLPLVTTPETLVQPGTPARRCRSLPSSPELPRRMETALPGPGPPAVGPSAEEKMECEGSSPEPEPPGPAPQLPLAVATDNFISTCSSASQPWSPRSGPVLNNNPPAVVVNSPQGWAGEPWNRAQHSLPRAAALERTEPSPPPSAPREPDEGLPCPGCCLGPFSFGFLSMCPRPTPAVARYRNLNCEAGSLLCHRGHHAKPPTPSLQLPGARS
T1 sequence (P15056 whole entry): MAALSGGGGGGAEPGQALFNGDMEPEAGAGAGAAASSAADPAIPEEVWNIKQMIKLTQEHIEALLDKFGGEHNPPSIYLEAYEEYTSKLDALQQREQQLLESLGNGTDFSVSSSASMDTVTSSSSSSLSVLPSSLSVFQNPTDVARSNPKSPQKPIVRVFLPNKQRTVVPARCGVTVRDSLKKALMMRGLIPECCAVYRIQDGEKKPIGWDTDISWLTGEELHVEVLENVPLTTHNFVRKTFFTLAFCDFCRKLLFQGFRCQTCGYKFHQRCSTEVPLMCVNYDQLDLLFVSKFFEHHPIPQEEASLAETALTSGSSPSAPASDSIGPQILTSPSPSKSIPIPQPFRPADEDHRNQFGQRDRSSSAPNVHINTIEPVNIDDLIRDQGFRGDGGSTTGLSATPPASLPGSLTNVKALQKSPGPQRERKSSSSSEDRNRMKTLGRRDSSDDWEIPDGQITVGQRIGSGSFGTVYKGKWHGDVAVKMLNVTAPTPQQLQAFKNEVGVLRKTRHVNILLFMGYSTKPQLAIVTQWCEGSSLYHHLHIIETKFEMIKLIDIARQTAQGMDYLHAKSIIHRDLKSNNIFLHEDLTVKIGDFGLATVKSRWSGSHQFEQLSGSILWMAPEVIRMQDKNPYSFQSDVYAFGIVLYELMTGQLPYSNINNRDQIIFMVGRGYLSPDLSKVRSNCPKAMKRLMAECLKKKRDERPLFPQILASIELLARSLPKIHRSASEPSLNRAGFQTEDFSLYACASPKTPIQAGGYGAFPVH

On to `COc1cc(C(=O)N2CCC(N3CCN(C)CC3)CC2)ccc1Nc1ncc2c(n1)N(C)c1ccccc1C(=O)N2C` [15 (LRRK2-IN-1)], for which, in assay [1], the “KINOMEscan: BRAF” value is recorded as 81. Moreover, the “% Ctrl, TESK1” value in assay [2] turned out to be 82 % Ctrl. Besides, the “% Ctrl, TEC” value in assay [3] is recorded as 100 % Ctrl.

For `COc1cc(C(=O)N2CCC(N3CCN(C)CC3)CC2)ccc1Nc1ncc2c(n1)N1CCc3cccc(c31)C(=O)N2C` [Compound 24], the “% Ctrl, TESK1” value in assay [2] was 84 % Ctrl. In assay [3], the “% Ctrl, TEC” value came to 100 % Ctrl.

Turning to `COc1cc(C(=O)N2CCC(N3CCN(C)CC3)CC2)ccc1Nc1ncc2c(n1)N(C1CCCC1)c1ccccc1C(=O)N2C` [Compound 25, 11-cyclopentyl-2-((2-methoxy-4-(4-(4-methylpiperazin-1-yl)piperidine-1-carbonyl)phenyl)amino)-5-methyl-5H-benzo[e]pyrimido[5,4-b][1,4]diazepin-6(11H)-one], the “KINOMEscan: BRAF” value in assay [1] turned out to be 100. Moreover, in assay [2], the “% Ctrl, TESK1” value stood at 100 % Ctrl. Moreover, the “% Ctrl, TEC” value in assay [3] was 91 % Ctrl.

Consider `CCOc1cc(C(=O)N2CCC(N3CCN(C)CC3)CC2)ccc1Nc1ncc2c(n1)N(C1CCCC1)c1ccccc1C(=O)N2C` [Compound 26], for which the “KINOMEscan: BRAF” value in assay [1] is reported as 90. In addition, in assay [2], the “% Ctrl, TESK1” value is reported as 100 % Ctrl. Also, the “% Ctrl, TEC” value in assay [3] is listed as 100 % Ctrl.

For the origin of these results see publication PMC3914206.
